Among the data in patent publication US20260124203A1, “CHEMICAL SYNTHETIC LETHALITY FOR ANTIMICROBIAL THERAPY” (priority 2024, published 2026) are Ki values, retold here.

In the experiment the target is T1, FolE2 (Burkholderia thailandensis, UniProt Q2T7N4).
T1 construct: fused on or other part: N-terminal 6xHis tag from pET-28b(+) (NdeI/SacI)
Nature of the experiment: biochemical. Details: species or system B. thailandensis. As to conditions: read-out: apparent Ki.

`C=C1CC[C@H]2C(=C)CC[C@H]3C(=C)C(=O)O[C@@H]3[C@@H]12` [DHL, dehydrocostus lactone]: the Ki was found to be 87 ± 21 µM.
